Test results published in PubChem BioAssay AID2060902 (Molecular Pharmacology Branch, DTP, NCI, 2025).

Tested on: 485368-065-R3-J5-PDC spheroids with HUVEC/MSC, viability
Test: Anticancer human tumor 485368-065-R3-J5-PDC patient-derived pancreatic carcinoma cell line growth inhibition [RAS]
Conditions: for IC50: curve of first compound; for viability, T/C: stronger effect = lower value
Summary of the method: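 Tumour cells grown as complex spheroids with HUVEC endothelial cells and mesenchymal stem cells, treated with RAS pathway inhibitor combinations. Each agent spans half-log steps from near clinical Cmax, or 10 microM where Cmax is unknown.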

[1] = second compound 0.00316 µM, first compound 0.0316 µM
[2] = second compound 0.00316 µM, first compound 0.1 µM
[3] = second compound 0.01 µM, first compound 0.0316 µM
[4] = second compound 0.01 µM, first compound 0.1 µM
[5] = second compound 0.0316 µM, first compound 0.0316 µM
[6] = second compound 0.0316 µM, first compound 0.1 µM
[7] = second compound 0.1 µM, first compound 0.0316 µM
[8] = second compound 0.1 µM, first compound 0.1 µM
[9] = second compound 0.316 µM, first compound 0.0316 µM
[10] = second compound 0.316 µM, first compound 0.1 µM
[11] = second compound 1 µM, first compound 0.0316 µM
[12] = second compound 1 µM, first compound 0.1 µM
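Further: spheroids exposed to agents for seven days before readout.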

CC(C)NCC(C(=O)N1CCN(c2ncnc3c2C(C)CC3O)CC1)c1ccc(Cl)cc1 (centres undefined) + C=CC(=O)N1CCN(c2nc(OCC3CCCN3C)nc3c(F)c(-c4nc(N)cc(C)c4C(F)(F)F)c(Cl)cc23)C(C)C1
IC50 (second compound 0.00316 µM): > 10000 nM
IC50 (second compound 0.01 µM): > 10000 nM
IC50 (second compound 0.0316 µM): > 10000 nM
IC50 (second compound 0.1 µM): > 10000 nM
IC50 (second compound 0.316 µM): > 10000 nM
IC50 (second compound 1 µM): 9610 nM
viability, T/C [1]: 101%
viability, T/C [2]: 93.7%
viability, T/C (second compound 0.00316 µM, first compound 0.316 µM): 94.7%
viability, T/C (second compound 0.00316 µM, first compound 1 µM): 82.9%
viability, T/C (second compound 0.00316 µM, first compound 3.16 µM): 70.8%
viability, T/C (second compound 0.00316 µM, first compound 10 µM): 61.6%
viability, T/C [3]: 109%
viability, T/C [4]: 101%
viability, T/C (second compound 0.01 µM, first compound 0.316 µM): 91.4%
viability, T/C (second compound 0.01 µM, first compound 1 µM): 75.8%
viability, T/C (second compound 0.01 µM, first compound 3.16 µM): 72.9%
viability, T/C (second compound 0.01 µM, first compound 10 µM): 53.5%
viability, T/C [5]: 102%
viability, T/C [6]: 124%
viability, T/C (second compound 0.0316 µM, first compound 0.316 µM): 93.3%
viability, T/C (second compound 0.0316 µM, first compound 1 µM): 88.2%
viability, T/C (second compound 0.0316 µM, first compound 3.16 µM): 68.6%
viability, T/C (second compound 0.0316 µM, first compound 10 µM): 57%
viability, T/C [7]: 102%
viability, T/C [8]: 105%
viability, T/C (second compound 0.1 µM, first compound 0.316 µM): 93.1%
viability, T/C (second compound 0.1 µM, first compound 1 µM): 78.9%
viability, T/C (second compound 0.1 µM, first compound 3.16 µM): 70.5%
viability, T/C (second compound 0.1 µM, first compound 10 µM): 57.8%
viability, T/C [9]: 100%
viability, T/C [10]: 105%
viability, T/C (second compound 0.316 µM, first compound 0.316 µM): 97.3%
viability, T/C (second compound 0.316 µM, first compound 1 µM): 78.3%
viability, T/C (second compound 0.316 µM, first compound 3.16 µM): 71.8%
viability, T/C (second compound 0.316 µM, first compound 10 µM): 52.9%
viability, T/C [11]: 101%
viability, T/C [12]: 90.6%
viability, T/C (second compound 1 µM, first compound 0.316 µM): 102%
viability, T/C (second compound 1 µM, first compound 1 µM): 84.6%
viability, T/C (second compound 1 µM, first compound 3.16 µM): 68%
viability, T/C (second compound 1 µM, first compound 10 µM): 49.1%

CC(C)n1nc(-c2ccc3oc(N)nc3c2)c2c(N)ncnc21 + C=CC(=O)N1CCN(c2nc(OCC3CCCN3C)nc3c(F)c(-c4nc(N)cc(C)c4C(F)(F)F)c(Cl)cc23)C(C)C1
IC50 (second compound 0.00316 µM): 14 nM
IC50 (second compound 0.01 µM): 14.6 nM
IC50 (second compound 0.0316 µM): 16.9 nM
IC50 (second compound 0.1 µM): 19.6 nM
IC50 (second compound 0.316 µM): 16.9 nM
IC50 (second compound 1 µM): 21.7 nM
viability, T/C (second compound 0.00316 µM, first compound 0.000316 µM): 106%
viability, T/C (second compound 0.00316 µM, first compound 0.001 µM): 99.4%
viability, T/C (second compound 0.00316 µM, first compound 0.00316 µM): 77.1%
viability, T/C (second compound 0.00316 µM, first compound 0.01 µM): 56%
viability, T/C [1]: 35.6%
viability, T/C [2]: 16.1%
viability, T/C (second compound 0.01 µM, first compound 0.000316 µM): 104%
viability, T/C (second compound 0.01 µM, first compound 0.001 µM): 90.4%
viability, T/C (second compound 0.01 µM, first compound 0.00316 µM): 81.4%
viability, T/C (second compound 0.01 µM, first compound 0.01 µM): 53.6%
viability, T/C [3]: 37.2%
viability, T/C [4]: 15.3%
viability, T/C (second compound 0.0316 µM, first compound 0.000316 µM): 97.2%
viability, T/C (second compound 0.0316 µM, first compound 0.001 µM): 95.8%
viability, T/C (second compound 0.0316 µM, first compound 0.00316 µM): 84.7%
viability, T/C (second compound 0.0316 µM, first compound 0.01 µM): 60.9%
viability, T/C [5]: 36.5%
viability, T/C [6]: 16.6%
viability, T/C (second compound 0.1 µM, first compound 0.000316 µM): 105%
viability, T/C (second compound 0.1 µM, first compound 0.001 µM): 90.9%
viability, T/C (second compound 0.1 µM, first compound 0.00316 µM): 96.3%
viability, T/C (second compound 0.1 µM, first compound 0.01 µM): 73.9%
viability, T/C [7]: 32.8%
viability, T/C [8]: 15.8%
viability, T/C (second compound 0.316 µM, first compound 0.000316 µM): 105%
viability, T/C (second compound 0.316 µM, first compound 0.001 µM): 99.8%
viability, T/C (second compound 0.316 µM, first compound 0.00316 µM): 83.3%
viability, T/C (second compound 0.316 µM, first compound 0.01 µM): 60.1%
viability, T/C [9]: 38%
viability, T/C [10]: 19.6%
viability, T/C (second compound 1 µM, first compound 0.000316 µM): 100%
viability, T/C (second compound 1 µM, first compound 0.001 µM): 87.8%
viability, T/C (second compound 1 µM, first compound 0.00316 µM): 84.1%
viability, T/C (second compound 1 µM, first compound 0.01 µM): 67%
viability, T/C [11]: 41%
viability, T/C [12]: 16.1%
